Like-named read-outs stand apart in the source and are kept apart here.
Tests used:
Type in all cases: binding
[1] = biological target: T1, HeLa cell extract proteins (Homo sapiens, UniProt P00338)
T1 construct: endogenous in cells; host or cells: HeLa cell extract

[2] = biological target: T2, HeLa cell extract proteins (Homo sapiens, UniProt P07814)
T2 construct: endogenous in cells; host or cells: HeLa cell extract

[3] = biological target: T3, HeLa cell extract proteins (Homo sapiens, UniProt Q96EY8)
T3 construct: endogenous in cells; host or cells: HeLa cell extract
T3 sequence (Q96EY8 33-250): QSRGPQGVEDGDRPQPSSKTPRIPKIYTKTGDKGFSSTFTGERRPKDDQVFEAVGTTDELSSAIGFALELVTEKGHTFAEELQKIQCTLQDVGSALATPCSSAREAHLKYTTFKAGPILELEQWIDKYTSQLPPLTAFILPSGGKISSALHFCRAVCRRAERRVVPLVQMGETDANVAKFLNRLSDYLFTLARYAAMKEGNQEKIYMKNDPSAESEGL

[4] = biological target: T4, HeLa cell extract proteins (Homo sapiens, UniProt P50990)
T4 construct: endogenous in cells; host or cells: HeLa cell extract
T4 sequence (P50990 1-548): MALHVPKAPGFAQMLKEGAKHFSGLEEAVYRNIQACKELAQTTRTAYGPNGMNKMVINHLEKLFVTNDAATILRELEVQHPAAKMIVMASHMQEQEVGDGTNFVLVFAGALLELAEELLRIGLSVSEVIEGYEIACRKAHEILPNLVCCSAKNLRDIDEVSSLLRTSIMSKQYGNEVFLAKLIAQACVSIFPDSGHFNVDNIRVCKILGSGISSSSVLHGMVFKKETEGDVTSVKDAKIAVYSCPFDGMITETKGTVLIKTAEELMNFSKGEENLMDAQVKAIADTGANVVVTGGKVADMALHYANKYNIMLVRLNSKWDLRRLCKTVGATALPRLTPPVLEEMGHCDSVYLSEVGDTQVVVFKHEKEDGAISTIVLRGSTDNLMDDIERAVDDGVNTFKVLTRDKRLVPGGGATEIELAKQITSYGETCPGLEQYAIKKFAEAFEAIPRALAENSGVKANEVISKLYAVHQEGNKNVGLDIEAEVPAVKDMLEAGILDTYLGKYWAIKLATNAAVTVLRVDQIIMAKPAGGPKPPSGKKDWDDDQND

[5] = biological target: T5, HeLa cell extract proteins (Homo sapiens, UniProt Q9BT22)
T5 construct: endogenous in cells; host or cells: HeLa cell extract
T5 sequence (Q9BT22 1-464): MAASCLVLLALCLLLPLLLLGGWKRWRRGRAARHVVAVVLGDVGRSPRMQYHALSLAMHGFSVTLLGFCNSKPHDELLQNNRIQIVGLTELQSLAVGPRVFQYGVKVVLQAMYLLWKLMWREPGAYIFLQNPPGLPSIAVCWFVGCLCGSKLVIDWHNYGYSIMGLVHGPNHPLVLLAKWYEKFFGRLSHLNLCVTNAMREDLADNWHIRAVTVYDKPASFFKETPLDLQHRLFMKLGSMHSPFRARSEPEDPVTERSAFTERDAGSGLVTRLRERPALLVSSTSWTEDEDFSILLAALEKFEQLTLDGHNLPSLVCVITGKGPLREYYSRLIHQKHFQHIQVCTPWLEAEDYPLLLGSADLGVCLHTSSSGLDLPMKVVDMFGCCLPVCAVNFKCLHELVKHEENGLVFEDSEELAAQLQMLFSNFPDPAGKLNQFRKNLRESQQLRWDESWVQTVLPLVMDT

[6] = biological target: T6, HeLa cell extract proteins (Homo sapiens, UniProt P55795)
T6 construct: endogenous in cells; host or cells: HeLa cell extract
T6 sequence (P55795 1-449): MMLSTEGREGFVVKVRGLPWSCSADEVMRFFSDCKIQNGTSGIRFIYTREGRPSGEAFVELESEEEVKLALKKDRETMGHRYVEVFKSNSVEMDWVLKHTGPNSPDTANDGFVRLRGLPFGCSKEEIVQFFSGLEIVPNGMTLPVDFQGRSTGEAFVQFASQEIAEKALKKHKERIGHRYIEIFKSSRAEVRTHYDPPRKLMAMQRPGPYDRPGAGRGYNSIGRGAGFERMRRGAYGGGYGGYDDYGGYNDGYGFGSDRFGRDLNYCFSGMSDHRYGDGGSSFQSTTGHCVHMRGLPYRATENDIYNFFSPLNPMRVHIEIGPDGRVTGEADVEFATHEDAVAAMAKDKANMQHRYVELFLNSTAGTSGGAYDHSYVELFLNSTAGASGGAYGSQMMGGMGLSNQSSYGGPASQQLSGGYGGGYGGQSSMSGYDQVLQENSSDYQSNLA

[7] = biological target: T7, HeLa cell extract proteins (Homo sapiens, UniProt P28070)
T7 construct: endogenous in cells; host or cells: HeLa cell extract
T7 sequence (P28070 46-264): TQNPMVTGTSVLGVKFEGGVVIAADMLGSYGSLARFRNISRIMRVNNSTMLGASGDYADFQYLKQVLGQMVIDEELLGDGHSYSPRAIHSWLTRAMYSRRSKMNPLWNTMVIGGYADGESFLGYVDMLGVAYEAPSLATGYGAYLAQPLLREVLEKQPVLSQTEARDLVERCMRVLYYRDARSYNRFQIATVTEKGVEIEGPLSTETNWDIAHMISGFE

[8] = biological target: T8, HeLa cell extract proteins (Homo sapiens, UniProt P33992)
T8 construct: endogenous in cells; host or cells: HeLa cell extract
T8 sequence (P33992 1-734): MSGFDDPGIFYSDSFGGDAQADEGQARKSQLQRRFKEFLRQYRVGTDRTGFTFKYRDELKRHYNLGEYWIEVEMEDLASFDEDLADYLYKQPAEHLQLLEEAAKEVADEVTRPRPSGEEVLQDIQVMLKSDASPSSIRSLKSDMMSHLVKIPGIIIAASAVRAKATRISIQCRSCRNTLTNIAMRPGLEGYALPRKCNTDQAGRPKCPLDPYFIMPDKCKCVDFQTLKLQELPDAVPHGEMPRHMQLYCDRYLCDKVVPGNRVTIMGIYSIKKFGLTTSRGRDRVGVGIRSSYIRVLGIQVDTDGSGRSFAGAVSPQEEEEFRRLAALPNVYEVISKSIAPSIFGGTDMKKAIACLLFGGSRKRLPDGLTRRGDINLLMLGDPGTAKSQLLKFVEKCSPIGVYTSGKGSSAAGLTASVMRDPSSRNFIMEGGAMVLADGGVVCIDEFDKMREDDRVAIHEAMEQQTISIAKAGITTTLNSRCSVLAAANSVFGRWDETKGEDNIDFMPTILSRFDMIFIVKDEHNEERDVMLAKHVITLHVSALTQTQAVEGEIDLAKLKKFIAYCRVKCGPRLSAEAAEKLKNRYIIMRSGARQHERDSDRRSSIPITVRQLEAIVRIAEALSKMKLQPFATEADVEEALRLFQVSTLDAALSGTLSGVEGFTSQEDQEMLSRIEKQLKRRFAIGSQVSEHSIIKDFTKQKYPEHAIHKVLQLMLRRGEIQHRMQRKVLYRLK

[9] = biological target: T9, HeLa cell extract proteins (Homo sapiens, UniProt Q9NYU2)
T9 construct: endogenous in cells; host or cells: HeLa cell extract
T9 sequence (Q9NYU2 43-1555): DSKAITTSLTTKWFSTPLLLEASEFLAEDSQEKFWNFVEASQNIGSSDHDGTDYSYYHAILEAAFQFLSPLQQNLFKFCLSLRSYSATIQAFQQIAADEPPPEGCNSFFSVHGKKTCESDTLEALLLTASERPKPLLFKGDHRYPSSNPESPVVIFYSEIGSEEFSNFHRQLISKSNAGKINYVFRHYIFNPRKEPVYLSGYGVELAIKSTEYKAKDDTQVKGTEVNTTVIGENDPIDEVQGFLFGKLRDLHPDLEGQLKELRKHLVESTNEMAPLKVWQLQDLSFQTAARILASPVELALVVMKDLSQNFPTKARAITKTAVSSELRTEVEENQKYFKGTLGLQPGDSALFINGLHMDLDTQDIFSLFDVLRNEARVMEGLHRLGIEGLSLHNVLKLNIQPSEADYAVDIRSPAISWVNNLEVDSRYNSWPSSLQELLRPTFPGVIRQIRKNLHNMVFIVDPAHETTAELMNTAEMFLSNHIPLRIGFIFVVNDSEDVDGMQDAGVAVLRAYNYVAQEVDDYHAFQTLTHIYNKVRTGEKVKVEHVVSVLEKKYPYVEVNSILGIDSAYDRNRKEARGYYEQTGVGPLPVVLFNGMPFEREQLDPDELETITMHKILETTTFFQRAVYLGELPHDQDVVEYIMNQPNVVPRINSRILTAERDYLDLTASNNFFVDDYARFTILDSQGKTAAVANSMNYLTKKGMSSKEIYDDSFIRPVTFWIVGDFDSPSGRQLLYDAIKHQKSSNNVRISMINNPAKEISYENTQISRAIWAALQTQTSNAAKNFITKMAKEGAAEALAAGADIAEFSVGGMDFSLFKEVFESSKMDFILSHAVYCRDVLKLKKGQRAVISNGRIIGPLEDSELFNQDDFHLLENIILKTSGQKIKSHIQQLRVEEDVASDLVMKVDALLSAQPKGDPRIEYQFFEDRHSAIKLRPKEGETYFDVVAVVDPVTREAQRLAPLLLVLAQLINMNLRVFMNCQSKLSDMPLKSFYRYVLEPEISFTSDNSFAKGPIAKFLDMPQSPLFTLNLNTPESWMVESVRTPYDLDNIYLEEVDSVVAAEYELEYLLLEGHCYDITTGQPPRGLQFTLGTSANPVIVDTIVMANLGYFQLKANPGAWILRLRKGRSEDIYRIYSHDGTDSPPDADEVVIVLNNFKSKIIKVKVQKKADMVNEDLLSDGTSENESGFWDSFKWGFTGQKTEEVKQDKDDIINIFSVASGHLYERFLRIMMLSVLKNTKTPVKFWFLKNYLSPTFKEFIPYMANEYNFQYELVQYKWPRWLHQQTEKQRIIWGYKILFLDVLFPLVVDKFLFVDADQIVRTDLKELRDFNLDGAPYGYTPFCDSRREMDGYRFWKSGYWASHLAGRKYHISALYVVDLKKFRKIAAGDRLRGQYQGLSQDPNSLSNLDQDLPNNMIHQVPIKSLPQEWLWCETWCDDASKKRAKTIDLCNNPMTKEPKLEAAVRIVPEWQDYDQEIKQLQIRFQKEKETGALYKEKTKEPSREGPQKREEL

[10] = biological target: T10, HeLa cell extract proteins (Homo sapiens, UniProt P39019)
T10 construct: endogenous in cells; host or cells: HeLa cell extract

[11] = HeLa, protein LDHA (ISOFORM 1 OF L-LACTATE DEHYDROGENASE A CHAIN.)
[12] = HeLa, protein EPRS (BI[…]-TRNA SYNTHETASE)
[13] = HeLa, protein RPS19 (40S RIBOSOMAL PROTEIN S19)

T2 sequence (P07814 whole entry): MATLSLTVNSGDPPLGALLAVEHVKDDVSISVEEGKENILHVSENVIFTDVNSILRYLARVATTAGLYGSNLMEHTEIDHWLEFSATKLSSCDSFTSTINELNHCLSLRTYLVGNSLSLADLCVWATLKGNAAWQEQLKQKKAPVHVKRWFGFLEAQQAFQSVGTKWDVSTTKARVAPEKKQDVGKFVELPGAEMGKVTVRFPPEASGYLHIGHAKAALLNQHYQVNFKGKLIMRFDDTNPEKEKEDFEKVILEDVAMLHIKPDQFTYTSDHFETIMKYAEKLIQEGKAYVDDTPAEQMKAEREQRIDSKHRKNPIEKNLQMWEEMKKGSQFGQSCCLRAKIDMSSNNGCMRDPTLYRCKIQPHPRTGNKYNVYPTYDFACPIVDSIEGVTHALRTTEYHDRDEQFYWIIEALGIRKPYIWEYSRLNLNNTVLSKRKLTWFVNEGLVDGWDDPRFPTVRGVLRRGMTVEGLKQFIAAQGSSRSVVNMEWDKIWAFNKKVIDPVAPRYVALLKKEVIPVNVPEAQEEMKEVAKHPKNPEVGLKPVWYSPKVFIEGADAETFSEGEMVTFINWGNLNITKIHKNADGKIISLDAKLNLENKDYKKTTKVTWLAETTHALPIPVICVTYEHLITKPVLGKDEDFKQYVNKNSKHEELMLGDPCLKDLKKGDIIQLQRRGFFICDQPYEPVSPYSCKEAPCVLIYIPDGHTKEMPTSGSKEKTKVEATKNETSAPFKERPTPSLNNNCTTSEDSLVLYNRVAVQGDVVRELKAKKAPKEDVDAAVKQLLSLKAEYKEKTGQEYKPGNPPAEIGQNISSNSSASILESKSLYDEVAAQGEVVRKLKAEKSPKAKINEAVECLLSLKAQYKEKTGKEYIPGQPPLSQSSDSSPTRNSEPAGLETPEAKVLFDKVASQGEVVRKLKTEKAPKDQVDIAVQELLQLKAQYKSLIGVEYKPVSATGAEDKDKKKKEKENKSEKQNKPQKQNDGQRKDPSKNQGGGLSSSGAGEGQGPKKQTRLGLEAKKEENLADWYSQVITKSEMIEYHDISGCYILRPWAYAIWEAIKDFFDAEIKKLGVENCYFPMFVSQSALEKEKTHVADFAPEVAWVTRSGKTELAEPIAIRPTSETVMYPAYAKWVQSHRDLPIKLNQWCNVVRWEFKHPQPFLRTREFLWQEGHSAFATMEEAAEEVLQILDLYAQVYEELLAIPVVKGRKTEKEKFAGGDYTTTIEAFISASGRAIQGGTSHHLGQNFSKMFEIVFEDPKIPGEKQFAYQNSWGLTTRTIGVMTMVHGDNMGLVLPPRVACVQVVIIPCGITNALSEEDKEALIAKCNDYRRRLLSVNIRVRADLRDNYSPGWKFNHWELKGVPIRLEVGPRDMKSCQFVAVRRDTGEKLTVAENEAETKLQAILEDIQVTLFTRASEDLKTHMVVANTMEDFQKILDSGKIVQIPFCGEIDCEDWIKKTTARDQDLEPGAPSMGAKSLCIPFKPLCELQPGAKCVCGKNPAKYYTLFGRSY

SMILES: Nc1nc2cccc(-c3ccccc3)c2n1Cc1ccc(Cl)c(Cl)c1 [compound 3]
- fold changes relative to vehicle control ([1]; HeLa, protein LDHA (ISOFORM 1 OF L-LACTATE DEH[…] CHAIN.)): 0.92 fold
- fold changes relative to vehicle control ([2]; protein EPRS, HeLa): 1.13
- fold changes relative to vehicle control ([3]; HeLa, protein MMAB): 0.96
- fold changes relative to vehicle control ([4]; protein CCT8, HeLa): 0.96
- fold changes relative to vehicle control ([5]; captured protein ALG1, HeLa): 1.05
- fold changes relative to vehicle control ([6]; protein HNRNPH2, HeLa): 1.05
- fold changes relative to vehicle control ([7]; protein PSMB4, HeLa): 1.05
- fold changes relative to vehicle control ([8]; protein MCM5, HeLa): 0.93
- fold changes relative to vehicle control ([9]; protein UGCGL1, HeLa): 1.05
- fold changes relative to vehicle control ([10]; protein RPS19, HeLa): 1.01

SMILES: CCCCCCOc1ccc(Cc2cnc(N)nc2N)cc1 [compound 1]
- fold changes relative to vehicle control [1, 11]: 1.48 fold
- fold changes relative to vehicle control ([2]; protein EPRS, HeLa): 1.06
- fold changes relative to vehicle control ([3]; HeLa, protein MMAB): 0.95
- fold changes relative to vehicle control ([4]; protein CCT8, HeLa): 1.16
- fold changes relative to vehicle control ([5]; captured protein ALG1, HeLa): 0.88
- fold changes relative to vehicle control ([6]; protein HNRNPH2, HeLa): 0.93
- fold changes relative to vehicle control ([7]; protein PSMB4, HeLa): 1.12
- fold changes relative to vehicle control ([8]; protein MCM5, HeLa): 1.04
- fold changes relative to vehicle control ([9]; protein UGCGL1, HeLa): 0.99
- fold changes relative to vehicle control ([10]; protein RPS19, HeLa): 0.98

SMILES: NCCCNc1ccc(C(=O)NC(CCC(=O)O)C(=O)O)cc1 (stereo not shown) [compound 7]
- fold changes relative to vehicle control ([1]; HeLa, protein LDHA): 0.95
- fold changes relative to vehicle control [2, 12]: 1.09
- fold changes relative to vehicle control ([3]; HeLa, protein MMAB (COB)): 0.94
- fold changes relative to vehicle control ([4]; HeLa, protein CCT8): 0.92
- fold changes relative to vehicle control ([5]; HeLa, protein ALG1): 0.99
- fold changes relative to vehicle control ([6]; HeLa, captured protein HNRNPH2): 0.91
- fold changes relative to vehicle control ([7]; HeLa, protein PSMB4): 0.95
- fold changes relative to vehicle control ([8]; HeLa, protein MCM5): 0.98
- fold changes relative to vehicle control ([9]; HeLa, protein UGCGL1): 1.05
- fold changes relative to vehicle control [10, 13]: 1.06

SMILES: CCCCCCOc1cccc(Cc2cnc(N)nc2N)c1 [compound 2]
- fold changes relative to vehicle control [1, 11]: 2.61 fold
- fold changes relative to vehicle control ([2]; protein EPRS, HeLa): 1.25
- fold changes relative to vehicle control ([3]; HeLa, protein MMAB): 0.94
- fold changes relative to vehicle control ([4]; protein CCT8, HeLa): 1.92
- fold changes relative to vehicle control ([5]; captured protein ALG1, HeLa): 0.91
- fold changes relative to vehicle control ([6]; protein HNRNPH2, HeLa): 0.96
- fold changes relative to vehicle control ([7]; protein PSMB4, HeLa): 1.21
- fold changes relative to vehicle control ([8]; protein MCM5, HeLa): 1.41
- fold changes relative to vehicle control ([9]; protein UGCGL1, HeLa): 1.22
- fold changes relative to vehicle control ([10]; protein RPS19, HeLa): 1.19

SMILES: NCCOCCOCC(=O)Nc1nc2ncc(CNc3ccc(C(=O)NC(CCC(=O)O)C(=O)O)cc3)nc2c(=O)[nH]1 (stereo not shown) [compound 6]
- fold changes relative to vehicle control ([1]; HeLa, protein LDHA): 1.23
- fold changes relative to vehicle control [2, 12]: 1.19
- fold changes relative to vehicle control ([3]; HeLa, protein MMAB (COB)): 0.51
- fold changes relative to vehicle control ([4]; HeLa, protein CCT8): 1.15
- fold changes relative to vehicle control ([5]; HeLa, protein ALG1): 0.93
- fold changes relative to vehicle control ([6]; HeLa, captured protein HNRNPH2): 0.83
- fold changes relative to vehicle control ([7]; HeLa, protein PSMB4): 1.04
- fold changes relative to vehicle control ([8]; HeLa, protein MCM5): 1.03
- fold changes relative to vehicle control ([9]; HeLa, protein UGCGL1): 1.01
- fold changes relative to vehicle control [10, 13]: 1.1

SMILES: Nc1nc2[nH]cc(CCc3ccc(C(=O)N[C@@H](CCC(=O)O)C(=O)O)cc3)c2c(=O)[nH]1 [PTX, pemetrexed]
- fold changes relative to vehicle control [1]: 1.15
- fold changes relative to vehicle control [2]: 1.06
- fold changes relative to vehicle control [3]: 0.85
- fold changes relative to vehicle control [4]: 1.02
- fold changes relative to vehicle control [5]: 0.81
- fold changes relative to vehicle control [6]: 0.82
- fold changes relative to vehicle control [7]: 0.97
- fold changes relative to vehicle control [8]: 1.12
- fold changes relative to vehicle control [9]: 1.02
- fold changes relative to vehicle control [10]: 1.11

SMILES: Nc1nc2c(c(=O)[nH]1)N(C=O)C(CNc1ccc(C(=O)N[C@@H](CCC(=O)O)C(=O)O)cc1)CN2 (stereo partly shown) [LEU, leucovorin]
- fold changes relative to vehicle control ([1]; HeLa, protein LDHA): 1.07
- fold changes relative to vehicle control [2, 12]: 1.11
- fold changes relative to vehicle control ([3]; HeLa, protein MMAB (COB)): 0.99
- fold changes relative to vehicle control ([4]; HeLa, protein CCT8): 0.99
- fold changes relative to vehicle control ([5]; HeLa, protein ALG1): 0.85
- fold changes relative to vehicle control ([6]; HeLa, captured protein HNRNPH2): 0.9
- fold changes relative to vehicle control ([7]; HeLa, protein PSMB4): 0.98
- fold changes relative to vehicle control ([8]; HeLa, protein MCM5): 0.94
- fold changes relative to vehicle control ([9]; HeLa, protein UGCGL1): 1.09
- fold changes relative to vehicle control [10, 13]: 1.12
